Test results from patent US12145917B2, “Crystalline forms of a compound for treating or preventing gout or hyperuricemia” (Arthrosi Therapeutics, Inc., priority 2019, dated 2024).

Legend:
[1] = Dynamic vapor sorption (DVS); type: physicochemical; conditions: for Post-GVS analysis by XRPD (change of form): after DVS cycle 0-90-0% RH; for Moisture uptake (DVS): between 0-90% RH
Method: DVS studies were performed using a DVS Intrinsic (SMS, UK) or IGASORP (Hiden, UK). 10 to 50 mg of compound was transferred into the DVS and the weight change recorded with respect to a varying atmospheric humidity at 25° C. using the following parameters:
Drying at 40° C. until dm/dt<±0.002%/min
Min time: 30 min, Max time: 120 min (for IGASORP)
Characterize the sample after the DVS experiment by XRPD

[2] = cited from earlier work
[3] = biological target: T1, human URAT1 uptake transporter (Homo sapiens, UniProt Q96S37); assay: In vitro interaction study with the human URAT1 uptake transporter (uric acid uptake in MDCKII cells); type: cell-based; conditions: MDCK-II, at a concentration of 10 μM, read-out: Inhibition of URAT1 mediated uric acid accumulation
T1 construct: expressed in transfected cells
T1 sequence (Q96S37 1-553): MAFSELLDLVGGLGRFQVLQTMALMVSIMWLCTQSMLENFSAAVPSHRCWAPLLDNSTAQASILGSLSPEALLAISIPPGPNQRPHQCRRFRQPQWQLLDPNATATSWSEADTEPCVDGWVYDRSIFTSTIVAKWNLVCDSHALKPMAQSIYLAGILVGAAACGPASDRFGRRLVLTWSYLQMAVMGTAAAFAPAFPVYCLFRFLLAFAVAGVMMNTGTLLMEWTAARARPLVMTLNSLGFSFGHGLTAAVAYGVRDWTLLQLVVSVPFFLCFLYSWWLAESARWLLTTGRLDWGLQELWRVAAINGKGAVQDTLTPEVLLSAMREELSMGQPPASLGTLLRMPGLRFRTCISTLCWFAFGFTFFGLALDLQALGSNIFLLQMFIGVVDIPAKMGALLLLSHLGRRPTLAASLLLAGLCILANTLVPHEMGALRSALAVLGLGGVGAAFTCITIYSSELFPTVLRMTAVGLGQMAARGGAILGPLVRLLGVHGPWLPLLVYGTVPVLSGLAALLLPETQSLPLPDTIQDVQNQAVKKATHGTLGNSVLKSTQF
Method: Uptake experiments were performed using MDCKII cells stably expressing the human URAT1 uptake transporter. Cells were cultured at 37±1° C. in an atmosphere of 95:5 air:CO2 and were plated onto standard 96-well tissue culture plates at the cell number described in Table 5.
Radiolabeled probe substrate transport was determined by measuring an aliquot (35 μL) from each well for liquid scintillation counting.

CYP2C9 = CYP2C9 (Homo sapiens, UniProt P11712); assay: CYP2C9 metabolic pathway / metabolite formation; type: in vitro ADME
Chain of CYP2C9 (P11712 whole entry): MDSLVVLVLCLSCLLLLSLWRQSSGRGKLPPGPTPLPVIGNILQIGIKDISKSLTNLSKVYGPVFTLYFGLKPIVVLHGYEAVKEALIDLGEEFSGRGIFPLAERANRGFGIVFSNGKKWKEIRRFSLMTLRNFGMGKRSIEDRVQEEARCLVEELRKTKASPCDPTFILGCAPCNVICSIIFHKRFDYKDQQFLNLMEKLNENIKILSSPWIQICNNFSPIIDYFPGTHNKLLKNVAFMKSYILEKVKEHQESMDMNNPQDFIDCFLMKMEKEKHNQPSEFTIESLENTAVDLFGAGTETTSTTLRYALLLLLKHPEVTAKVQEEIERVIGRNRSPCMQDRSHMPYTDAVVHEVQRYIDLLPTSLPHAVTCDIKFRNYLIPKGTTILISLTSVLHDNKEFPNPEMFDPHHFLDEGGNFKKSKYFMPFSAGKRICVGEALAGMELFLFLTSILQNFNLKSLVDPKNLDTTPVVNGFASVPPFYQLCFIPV

[4] = Stability in human microsomes; type: in vitro ADME

SMILES | Hygroscopicity ([1]; DVS, 25° C.) | Post-GVS analysis by XRPD (change of form) [1] | Moisture uptake (DVS) ([1]; 25° C.) [%] | inhibition at 10 µM [3] [%] | also measured
[2H]c1c([2H])c([2H])c2c(C(=O)c3cc(Br)c(O)c(Br)c3)c(C(C)O)oc2c1[2H] (centres unmarked) [Form 2, (3,5-dibromo-4-hydroxyphenyl)(2-(1-hydroxyethyl)benzofuran-3-yl-4,5,6,7-d4)methanone] | non-hygroscopic | no change | 0.08 |  | 
CCc1oc2ccccc2c1C(=O)c1cc(Br)c(O)c(Br)c1 [Benzbromarone] |  |  |  | 98 | Serum uric acid (sUA) level reached ([2]; chronic therapy): < 6 mg/dL; Hepatotoxicity ([2]; in certain patients): associated with hepatotoxicity
[2H]c1c([2H])c([2H])c2c(C(=O)c3cc(Br)c(O)c(Br)c3)c(C(C)O)oc2c1[2H] (centres unmarked) [Form 3, (3,5-dibromo-4-hydroxyphenyl)(2-(1-hydroxyethyl)benzofuran-3-yl-4,5,6,7-d4)methanone] | non-hygroscopic | no change | 0.04 |  | 
[2H]c1c([2H])c([2H])c2c(C(=O)c3cc(Br)c(O)c(Br)c3)c(C(C)O)oc2c1[2H] (centres unmarked) [Form 1, (3,5-dibromo-4-hydroxyphenyl)(2-(1-hydroxyethyl)benzofuran-3-yl-4,5,6,7-d4)methanone] |  |  |  |  | RH at which the dehydrated form converted to hydrated form ([1]; DVS, 25° C.): ≥ 20%
[2H]c1c([2H])c([2H])c2c(C(=O)c3cc(Br)c(O)c(Br)c3)c(C(C)O)oc2c1[2H] (centres unmarked) [Compound 1, (3,5-dibromo-4-hydroxyphenyl)(2-(1-hydroxyethyl)benzofuran-3-yl-4,5,6,7-d4)methanone] |  |  |  | 100 | Formation of 6-OH benzbromarone and 5,6-di-OH benzbromarone metabolites (CYP2C9): not formed; CYP2C9 metabolic pathway (CYP2C9; compared with benzbromarone): significantly reduced; Stability in human microsomes compared with benzbromarone [4]: more stable than benzbromarone in human microsomes
